Data reported in patent US11345710B2, “Imidazo[1,2-b]pyrimido[4,5-d]pyridazin-5(6H)-ones and the use thereof” (IMPACT THERAPEUTICS (SHANGHAI), INC, priority 2017, dated 2022).
Where two headings read alike, the source gives them in different places.

Tests used:
NCI-H1299 cells = experiment: MTT based cell viability assay on NCI-H1299 cells; details: for IC50: read-out: IC50, growth inhibition on NCI-H1299 cells
Protocol: Determination of the Cell Growth Inhibiting Activity of 6-(2,6-dichlorophenyl)-2-((4-(4-methylpiperazin-1-yl)phenyl)amino)imidazo[1,2-b]pyrimido[4,5-d]pyridazin-5(6H)-one and Analogs on NCI-H1299 Cells Using a MTT Based Cell Viability Assay
The thawed NCI-H1299 cells were cultured and passaged to the third generation, and the growth state was good and the confluence was about 90%, which began to be used in the experiment. The NCI-H1299 cells were digested with trypsin, centrifuged at 800 rpm for 5 min, the supernatant was discarded, resuspended with fresh culture medium, and counted. 1000 Cells are seeded to each well of a 96-well plate. The cells are incubated at 37° C. in a 5% CO2 cell culture incubator overnight. The tested sample (including the tested compound and the reference compound AZD1775) was diluted continuously to 8 concentrations (the last concentration was negative control of DMSO) with a 1:3 and 1:10 dilution in DMSO respectively: 10 μM, 3.3 μM, 1 μM, 0.33 μM, 0.1 μM, 0.033 μM, 0.01 μM, 0 μM (the final concentration of DMSO was 1%). 5 μL of each concentration was added to 120 μL of culture medium (25 times diluted), and the mixture was shaken well. The overnight cells were taken and the culture medium was removed, 195 μL of fresh culture medium was added to each well, and 5 μL of diluted culture medium containing the corresponding concentration of the tested sample was added respectively, and the culture plate was then placed in the 5% CO2 cell culture incubator at 37° C. for 3 d. After removing the original solution and adding 100 μL of fresh serum-free DMEM culture medium containing MTT (0.5 mg/mL) per well, the culture was continued. The original solution was removed after 4 hrs and 100 μl DMSO was added to each well. The 96-well cell culture plates were shaken away from light for 10 min and readed in a multifunctional reader at 552/630/690 nm to give absorption values (OD values). The data were analyzed using a graphic software (Graph Pad Prism 5.0) and the inhibitory activity of the compound on cell proliferation was plotted in terms of cell survival and compound concentration. The IC50 values were fitted by the S-shaped dose-response curve equation as follows: Y=100/(1+10^(Log C−Log IC50)), where C was the concentration of testing compounds.

LoVo cells = experiment: MTT based cell viability assay on LoVo cells; details: for IC50: read-out: IC50, growth inhibition on LoVo cells
Protocol: Determination of the Cell Growth Inhibiting Activity of 6-(2,6-dichlorophenyl)-2-((4-(4-methylpiperazin-1-yl)phenyl)amino)imidazo[1,2-b]pyrimido[4,5-d]pyridazin-5(6H)-one and Analogs Thereof on LoVo Cells Using a MTT Based Cell Viability Assay
The thawed LoVo cells were cultured and passaged to the third generation, and the growth state was good and the confluence was about 90%, which began to be used in the experiment. The LoVo cells were digested with trypsin, centrifuged at 800 rpm for 5 min, the supernatant was discarded, resuspended with fresh culture medium, and counted. 6000 Cells are seeded to each well of a 96-well cell culture plate. The cells were incubated at 37° C. in a 5% CO2 cell culture incubator overnight. The tested sample (including the tested compound and the reference compound AZD1775) was diluted continuously to 8 concentrations (the last concentration was negative control of DMSO) with a 1:3 and 1:10 dilution in DMSO respectively: 10 μM, 3.3 μM, 1 μM, 0.33 μM, 0.1 μM, 0.033 μM, 0.01 μM, 0 μM (the final concentration of DMSO was 1%). 5 μL of each concentration was added to 120 μL of culture medium (25 times diluted), and the mixture was shaken well. The overnight cells were taken and the culture medium was removed, 195 μL of fresh culture medium was added to each well, and 5 μL of diluted culture medium containing the corresponding concentration of the tested sample was added respectively, and the culture plate was then placed in the 5% CO2 cell culture incubator at 37° C. for 3 d. After removing the original solution and adding 100 μL of fresh serum-free DMEM culture medium containing MTT (0.5 mg/mL) per well, the culture was continued. The original solution was removed after 4 hrs and 100 μl DMSO was added to each well. The 96-well cell culture plates were shaken away from light for 10 min and readed in a multifunctional reader at 552/630/690 nm to give absorption values (OD values). The data were analyzed using a graphic software (Graph Pad Prism 5.0) and the inhibitory activity of the compound on cell proliferation was plotted in terms of cell survival and compound concentration. The IC50 values were fitted by the S-shaped dose-response curve equation as follows: Y=100/(1+10^(Log C−Log IC50)), where C was the concentration of testing compounds.

Wee1 kinase (h) = Wee1 kinase (h) (Homo sapiens, UniProt P30291); experiment: Wee1 kinase (h) detection method, [γ-33P]-ATP filter assay; format: biochemical; details: for Inh. (%) of Wee1 kinase: 10 μM ATP, 40 minutes at room temperature
Sequence of Wee1 kinase (h) (P30291 whole entry): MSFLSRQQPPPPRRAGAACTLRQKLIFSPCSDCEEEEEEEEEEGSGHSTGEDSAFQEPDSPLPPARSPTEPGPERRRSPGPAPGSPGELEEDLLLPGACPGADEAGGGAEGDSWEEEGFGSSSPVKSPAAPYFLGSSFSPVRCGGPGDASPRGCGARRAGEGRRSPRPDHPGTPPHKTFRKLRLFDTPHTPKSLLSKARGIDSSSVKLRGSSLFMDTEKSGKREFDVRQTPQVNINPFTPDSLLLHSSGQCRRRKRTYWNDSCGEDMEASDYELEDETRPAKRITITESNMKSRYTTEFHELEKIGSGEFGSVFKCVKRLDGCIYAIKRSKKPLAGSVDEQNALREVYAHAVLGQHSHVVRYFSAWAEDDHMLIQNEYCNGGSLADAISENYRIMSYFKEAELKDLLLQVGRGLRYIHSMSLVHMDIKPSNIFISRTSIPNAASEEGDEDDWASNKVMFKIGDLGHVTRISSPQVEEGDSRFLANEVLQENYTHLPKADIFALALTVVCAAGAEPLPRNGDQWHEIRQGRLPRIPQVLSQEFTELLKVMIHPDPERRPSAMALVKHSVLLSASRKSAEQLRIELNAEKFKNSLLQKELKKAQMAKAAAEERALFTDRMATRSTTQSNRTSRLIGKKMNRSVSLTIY
Protocol: Wee1 kinase (h) was incubated with 20 mM Tris/HCl pH 8.5, 0.2 mM EDTA, 500 μM […], 10 mM MgAcetate and 10 μM [γ-^33P]-ATP. Then the stock solution of all compounds under test with 50× concentration in 100% DMSO was added to make the final concentration of 1/0.1/0.01 μM, and then mixed the mixture well. The reaction was initiated by the addition of the Mg/ATP mix. After incubation for 40 minutes at room temperature, the reaction was stopped by the addition of phosphoric acid to a concentration of 0.5%. 10 μL of the reaction liquor was then spotted onto a P30 filtermat and washed four times in 0.425% phosphoric acid and once in methanol prior to drying and scintillation counting. Each compound sample was duplicated in duplicate. The negative control was lack of all the components of Wee1 enzyme, and the positive was addition of 30% phosphoric acid to terminate the reaction. The Wee1 inhibitor AZD1775 was detected at 10/0.01 μM at the same experiment condition.

[1] = Homo sapiens, 72 h, NCI-H1299 cells, 3 d, MTT
[2] = Homo sapiens, 72 h, LoVo cells, 3 d, MTT

| Compound | IC50 (NCI-H1299 cells; Homo sapiens, NCI-H1299, 72 h) | IC50 (LoVo cells; Homo sapiens, LoVo, 72 h) | Inh. (%) of Wee1 kinase (Wee1 kinase (h); C 0.01 μm) | Inh. (%) of Wee1 kinase (Wee1 kinase (h); C 1 μm) | IC50 (NCI-H1299 cells; [1]) | IC50 (LoVo cells; [2]) | Inh. (%) of Wee1 kinase (Wee1 kinase (h); C 0.1 μm) | other results |
| --- | --- | --- | --- | --- | --- | --- | --- | --- |
| COc1cc(Nc2ncc3c(=O)n(-c4c(Cl)cccc4Cl)n4ccnc4c3n2)cc(Cl)c1N1CCC(N(C)C)CC1 [Example 38, 6-(2,6-dichlorophenyl)-2-((3-chloro-5-methoxy-4-(4-(dimethylamino)piperidin-1-yl)phenyl)amino)imidazo[1,2-b]pyrimido[4,5-d]pyridazin-5(6H)-one] | 978 nM | 416 nM | 11% | – | – | – | – | – |
| Cc1cc(Nc2ncc3c(=O)n(-c4c(Cl)cccc4Cl)n4ccnc4c3n2)cc(F)c1N1CCN(C)CC1 [Example 28, 6-(2,6-dichlorophenyl)-2-((3-fluoro-5-methyl-4-(4-methylpiperazin-1-yl)phenyl)amino)imidazo[1,2-b]pyrimido[4,5-d]pyridazin-5(6H)-one] | 295 nM | 266 nM | 15% | 95% | – | – | – | – |
| CCc1cn2c(n1)c1nc(Nc3ccc(N4CCC(N(C)C)CC4)c(C)c3)ncc1c(=O)n2-c1c(Cl)cccc1Cl [Example 61, 6-(2,6-dichlorophenyl)-2-((3-methyl-4-(4-(dimethylamino)piperidin-1-yl)phenyl)amino)-9-ethylimidazo[1,2-b]pyrimido[4,5-d]pyridazin-5(6H)-one] | – | – | 12% | – | 126 nM | 352 nM | – | – |
| Cc1cc(Nc2ncc3c(=O)n(-c4c(F)cccc4Cl)n4ccnc4c3n2)cc(F)c1N1CCN(C)CC1 [Example 22, 6-(2-chloro-6-fluorophenyl)-2-((3-fluoro-5-methyl-4-(4-methylpiperazin-1-yl)phenyl)amino)imidazo[1,2-b]pyrimido[4,5-d]pyridazin-5(6H)-one] | – | – | 21% | 95% | 376 nM | 138 nM | – | – |
| Cc1cn2c(n1)c1nc(Nc3cc(C)c(N4CCC(N(C)C)CC4)c(F)c3)ncc1c(=O)n2-c1c(Cl)cccc1Cl [Example 59, 6-(2,6-dichlorophenyl)-2-((3-fluoro-5-methyl-4-(4-(dimethylamino)piperidin-1-yl)phenyl)amino)-9-methylimidazo[1,2-b]pyrimido[4,5-d]pyridazin-5(6H)-one] | – | – | 7% | – | 220 nM | 285 nM | – | – |
| Cc1cc(Nc2ncc3c(=O)n(-c4c(Cl)cccc4Br)n4ccnc4c3n2)ccc1N1CCC(N(C)C)CC1 [Example 49, 6-(2-bromo-6-chlorophenyl)-2-((3-methyl-4-(4-(dimethylamino)piperidin-1-yl)phenyl)amino)imidazo[1,2-b]pyrimido[4,5-d]pyridazin-5(6H)-one] | – | – | – | 91% | 337 nM | 272 nM | – | – |
| Cc1cc(Nc2ncc3c(=O)n(-c4c(Cl)cccc4Cl)n4ccnc4c3n2)ccc1N1CCN(C)CC1 [Example 3, 6-(2,6-dichlorophenyl)-2-((3-methyl-4-(4-methylpiperazin-1-yl)phenyl)amino)imidazo[1,2-b]pyrimido[4,5-d]pyridazin-5(6H)-one] | 178 nM | 236 nM | 26% | 96% | – | – | 76% | – |
| Cc1cc(Nc2ncc3c(=O)n(-c4c(Cl)cccc4Cl)n4cc(C(C)C)nc4c3n2)ccc1N1CCC(N(C)C)CC1 [Example 62, 6-(2,6-dichlorophenyl)-2-((3-methyl-4-(4-(dimethylamino)piperidin-1-yl)phenyl)amino)-9-isopropylimidazo[1,2-b]pyrimido[4,5-d]pyridazin-5(6H)-one] | – | – | 7% | – | 197 nM | 620 nM | – | – |
| Cc1cc(Nc2ncc3c(=O)n(-c4c(F)cccc4F)n4ccnc4c3n2)cc(Cl)c1N1CCN(C)CC1 [Example 20, 6-(2,6-difluorophenyl)-2-((3-chloro-5-methyl-4-(4-methylpiperazin-1-yl)phenyl)amino) imidazo[1,2-b]pyrimido[4,5-d]pyridazin-5(6H)-one] | – | – | – | 77% | 597 nM | 364 nM | – | – |
| CN1CCN(c2ccc(Nc3ncc4c(=O)n(-c5c(Cl)cccc5Cl)n5ccnc5c4n3)cc2)CC1 [Example 1, 6-(2,6-dichlorophenyl)-2-((4-(4-methylpiperazin-1-yl)phenyl)amino)imidazo[1,2-b]pyrimido[4,5-d]pyridazin-5(6H)-one] | 916 nM | 524 nM | 11% | 94% | – | – | 75% | inhibitory effect on the growth of NCI-H1299 cell (summary in words) (NCI-H1299 cells; MTT method): inhibitory effect; inhibitory effect on the growth of LoVo cells (summary in words) (LoVo cells; MTT method): inhibitory effect; inhibitory effect on the activity of Wee1 kinase (summary in words) (Wee1 kinase (h)): good inhibitory effect |
| Cc1cc(Nc2ncc3c(=O)n(-c4c(Cl)cccc4Cl)n4ccnc4c3n2)cc2c1C(C)(C)CN(C)C2 [Example 43, 6-(2,6-dichlorophenyl)-2-((2,4,4,4,5-tetramethyl-1,2,3,4-tetrahydroisoquinolin-7-yl)amino)imidazo[1,2-b]pyrimido[4,5-d]pyridazin-5(6H)-one] | – | – | 9% | – | – | – | – | IC50 (NCI-H1299 cells; NCI-H1299 cells, 3 d, MTT): 175 nM; IC50 (LoVo cells; LoVo cells, 3 d, MTT): 476 nM |
| CN1CCN(c2ccc(Nc3ncc4c(=O)n(-c5c(Cl)cccc5Cl)n5ccnc5c4n3)cc2Cl)CC1 [Example 27, 6-(2,6-dichlorophenyl)-2-((3-chloro-4-(4-methylpiperazin-1-yl)phenyl)amino)imidazo[1,2-b]pyrimido[4,5-d]pyridazin-5(6H)-one] | 470 nM | 370 nM | 17% | 97% | – | – | 76% | – |
| Cc1cc(Nc2ncc3c(=O)n(-c4c(Cl)cccc4Cl)n4ccnc4c3n2)cc(Cl)c1N1CCN(C)CC1 [Example 29, 6-(2,6-dichlorophenyl)-2-((3-chloro-5-methyl-4-(4-methylpiperazin-1-yl)phenyl)amino)imidazo[1,2-b]pyrimido[4,5-d]pyridazin-5(6H)-one] | 400 nM | 272 nM | 21% | 93% | – | – | 65% | – |
